Consider 17 molecules from patent US9399639B2, “Substituted azaindole compounds, salts, pharmaceutical compositions thereof and methods of use” (Calitor Sciences, LLC, priority 2012, dated 2016).

Common to all, as to assay type: in vitro ADME
Series [1] in a line: Compound stability in rat liver microsomes. Particulars: for CLint scaled at 1 μM: pH 7.4, in vivo CLint extrapolated; for half-life at 1 μM: pH 7.4, read-out: Rat T1/2. How it is done:
(§1) Human or rat liver microsomes incubations were conducted in duplicate in polypropylene tubes. […] Compounds were dissolved in DMSO and diluted with PBS such that the final concentration of DMSO was 0.05%. The enzymatic reactions were commenced with the addition of protein after a 3 min preincubation and incubated in a water bath open to the air at 37° C. Reactions were terminated at various time points (0, 5, 10, 15, 30, 60 min) by adding equal volume of ice-cold acetonitrile. The samples were stored at −80° C. until LC/MS/MS assays.
(§2) The concentrations of compounds in the incubation mixtures of human (or rat) liver microsomes were determined by a LC/MS/MS method. The ranges of the linearity in the concentration range were determined for each tested compounds.
(§3) A parallel incubation was performed using denatured microsomes as the negative control, and reactions were terminated at various time points (for example, 0, 15, 60 min) after incubation at 37° C.
(§4) Dextromethorphan (70 μM) was selected as the positive control, and reactions were terminated at various time points (0, 5, 10, 15, 30, 60 min) after incubation at 37° C. Both positive and negative control samples were included in each assay to ensure the integrity of the microsomal incubation system.
(§5) Alternatively, the stability of some of the compounds disclosed herein in human (or rat) liver microsomes were also conducted in the following protocol. The incubations were conducted in duplicate in polypropylene tubes. […] Compounds were dissolved in DMSO and diluted with K-buffer such that the final concentration of DMSO was 0.2%. The enzymatic reactions were commenced with the addition of 15 μL of NADPH (final concentration: 2 mM) after 10 min preincubation and incubated in a 37° C. incubator. Reactions were terminated at various time points (0, 15, 30, 60 min) by adding 135 μL acetonitrile (contain IS). Protein is removed by centrifugation with 4,000 rpm, 10 min.
(§6) In the above protocol, ketanserin (1 μM) was selected as the positive control, and reactions were terminated at various time points (0, 15, 30, 60 min) after incubation at 37° C. The positive control sample was included in each assay to ensure the integrity of the microsomal incubation system.
(§7) The concentrations of compounds in liver microsome incubations were plotted as a percentage of the relevant zero time point control for each reaction. The in vivo CLint were extrapolated (ref: Naritomi et al., Prediction of human hepatic clearance from in vivo animal experiments and in vitro metabolic studies with liver microsomes from animals and humans, Drug Metab. Dispos., 2001, 29: 1316-1324.) […]

A short description of series [2]: Compound stability in human liver microsomes. Particulars: for CLint scaled at 1 μM: pH 7.4, in vivo CLint extrapolated; for half-life at 1 μM: pH 7.4, read-out: Human T1/2. How it is done: as §1, §2, §3, §4, §5, §6, §7
A further series can be described thus: Stability in rat plasma. Particulars: read-out: Rat T1/2. How it is done:
(§8) Similarly, selected compounds of the invention were also assessed for their stability in human and rat plasma, and the results are listed in Table 3.

The nature of series [3]: Stability in human plasma. Particulars: for Human T1/2: 2 μM; for half-life at 2 μM: read-out: Human T1/2. As to the method: as §8

`CCCS(=O)(=O)N(C(=O)OCC)c1ccc(F)c(C(=O)c2c[nH]c3ncc(-c4ccc(Cl)cc4)cc23)c1F` [Ex. 1, ethyl 3-(5-(4-chlorophenyl)-1H-pyrrolo[2,3-b]pyridine-3-carbonyl)-2,4-difluorophenyl(propylsulfonyl)carbamate]: in series [1], the CLint scaled (in general, the capacity of the preparation to metabolise the compound, expressed as a volume cleared per time) at 1 μM was 142 mL/min/kg and the half-life at 1 μM stood at 17.5 min. Also, in series [2], the CLint scaled at 1 μM is 60.2 mL/min/kg and the half-life at 1 μM came out at 28.9 min.

As to `CCCS(=O)(=O)N(C(=O)c1ccccc1)c1ccc(F)c(C(=O)c2c[nH]c3ncc(-c4ccc(Cl)cc4)cc23)c1F` [Ex. 2, N-(3-(5-(4-chlorophenyl)-1H-pyrrolo[2,3-b]pyridine-3-carbonyl)-2,4-difluorophenyl)-N-(propylsulfonyl)benzamide], in series [1], the intrinsic clearance (CLint scaled) at 1 μM is 193 mL/min/kg and the half-life at 1 μM was found to be 12.8 min. In series [2], the CLint scaled at 1 μM is 29.2 mL/min/kg and the half-life at 1 μM was 59.5 min.

Consider `CCCS(=O)(=O)Nc1ccc(F)c(C(=O)c2cn(COC(=O)C(C)(C)C)c3ncc(-c4ccc(Cl)cc4)cc23)c1F` [Ex. 7a, (5-(4-chlorophenyl)-3-(2,6-difluoro-3-(propylsulfonamido)benzoyl)-1H-pyrrolo[2,3-b]pyridin-1-yl)methyl pivalate], for which, in series [1], the intrinsic metabolic clearance (CLint scaled) at 1 μM was 46.8 mL/min/kg and the half-life at 1 μM was 53.1 min. In the series “Stability in rat plasma”, the half-life at 2 μM is 68.8 min. The “Human T1/2” value in series [2] (1 μM) is on record as “∞”. Besides, the “Human T1/2” value in series [3] is “∞”.

For the molecule `CCCS(=O)(=O)Nc1ccc(F)c(C(=O)c2cn(COC(=O)C(C)C)c3ncc(-c4ccc(Cl)cc4)cc23)c1F` [Ex. 9, (5-(4-chlorophenyl)-3-(2,6-difluoro-3-(propylsulfonamido)benzoyl)-1H-pyrrolo[2,3-b]pyridin-1-yl)methyl isobutyrate], the half-life at 2 μM in the series “Stability in rat plasma” stood at 28.6 min; in series [3], 113 min.

Turning to `CCCS(=O)(=O)Nc1ccc(F)c(C(=O)c2cn(C(C)OC(=O)CC)c3ncc(-c4ccc(Cl)cc4)cc23)c1F` (stereo not drawn) [Ex. 10, 1-(5-(4-chlorophenyl)-3-(2,6-difluoro-3-(propylsulfonamido)benzoyl)-1H-pyrrolo[2,3-b]pyridin-1-yl)ethyl propionate], the half-life at 2 μM in the series “Stability in rat plasma” worked out at 55.8 min; in series [3], 88.1 min.

Regarding `CCCS(=O)(=O)Nc1ccc(F)c(C(=O)c2cn(C(OC(=O)CC)C(C)C)c3ncc(-c4ccc(Cl)cc4)cc23)c1F` (stereo not drawn) [Ex. 11, 1-(5-(4-chlorophenyl)-3-(2,6-difluoro-3-(propylsulfonamido)benzoyl)-1H-pyrrolo[2,3-b]pyridin-1-yl)-2-methylpropyl propionate], the half-life at 2 μM in “Stability in rat plasma” was found to be 49.8 min; in series [3], 162 min.

`CCCS(=O)(=O)Nc1ccc(F)c(C(=O)c2cn(C(C)OC(=O)C(C)C)c3ncc(-c4ccc(Cl)cc4)cc23)c1F` (stereo not drawn) [Ex. 14, 1-(5-(4-chlorophenyl)-3-(2,6-difluoro-3-(propylsulfonamido)benzoyl)-1H-pyrrolo[2,3-b]pyridin-1-yl)ethyl isobutyrate]: in series [2], the intrinsic clearance (CLint scaled) at 1 μM is 51.7 mL/min/kg and the half-life at 1 μM turned out to be 33.6 min. Also, the half-life at 2 μM in series [3] was determined as 511 min.

For `CCCS(=O)(=O)Nc1ccc(F)c(C(=O)c2cn(COC(=O)CC)c3ncc(-c4ccc(Cl)cc4)cc23)c1F` [Ex. 15, (5-(4-chlorophenyl)-3-(2,6-difluoro-3-(propylsulfonamido)benzoyl)-1H-pyrrolo[2,3-b]pyridin-1-yl)methyl propionate], the half-life at 2 μM in the series “Stability in rat plasma” was 18.6 min; in series [3] it was 39.6 min.

`CCCS(=O)(=O)Nc1ccc(F)c(C(=O)c2cn(C(OC(=O)C(C)C)C(C)C)c3ncc(-c4ccc(Cl)cc4)cc23)c1F` (stereo not drawn) [Ex. 16, 1-(5-(4-chlorophenyl)-3-(2,6-difluoro-3-(propylsulfonamido)benzoyl)-1H-pyrrolo[2,3-b]pyridin-1-yl)-2-methylpropyl isobutyrate]: the half-life at 2 μM in “Stability in rat plasma” turned out to be 157 min. In addition, in series [3], the “Human T1/2” value was “∞”.

With `CCCS(=O)(=O)Nc1ccc(F)c(C(=O)c2cn(COC(=O)C(N)C(C)C)c3ncc(-c4ccc(Cl)cc4)cc23)c1F.Cl` (stereo not drawn) [Ex. 18, (5-(4-chlorophenyl)-3-(2,6-difluoro-3-(propylsulfonamido)benzoyl)-1H-pyrrolo[2,3-b]pyridin-1-yl)methyl 2-amino-3-methylbutanoate hydrochloride], the figures for the half-life at 2 μM (in “Stability in rat plasma”; in series [3]) were 9.61 min and 6.08 min, respectively. In addition, in series [2], the CLint scaled at 1 μM is 5.52 mL/min/kg. In addition, in series [2], the half-life at 1 μM was 78.8 min.

For `CCCS(=O)(=O)Nc1ccc(F)c(C(=O)c2cn(COC(=O)CN)c3ncc(-c4ccc(Cl)cc4)cc23)c1F.Cl` [Ex. 19, (5-(4-chlorophenyl)-3-(2,6-difluoro-3-(propylsulfonamido)benzoyl)-1H-pyrrolo[2,3-b]pyridin-1-yl)methyl 2-aminoacetate hydrochloride], the figures for the half-life at 2 μM (in the series “Stability in rat plasma”; in series [3]) were 5.9 min and 7.47 min, respectively.

For the molecule `CCCS(=O)(=O)Nc1ccc(F)c(C(=O)c2cn(COC(=O)[C@@H](N)C(C)CC)c3ncc(-c4ccc(Cl)cc4)cc23)c1F.Cl` (stereo partly drawn) [Ex. 22, (2S)-(5-(4-chlorophenyl)-3-(2,6-difluoro-3-(propylsulfonamido)benzoyl)-1H-pyrrolo[2,3-b]pyridin-1-yl)methyl-2-amino-3-methylpentanoate hydrochloride], the intrinsic metabolic clearance (CLint scaled) at 1 μM in series [1] was 535 mL/min/kg; in series [2], 23.9 mL/min/kg. Further, the half-life at 1 μM is 4.6 min in series [1] and 72.8 min in series [2]. In addition, the half-life at 2 μM in the series “Stability in rat plasma” was 15.2 min; in series [3], 6.81 min.

For the molecule `CCCS(=O)(=O)Nc1ccc(F)c(C(=O)c2cn(COC(=O)[C@@H](N)CC(C)C)c3ncc(-c4ccc(Cl)cc4)cc23)c1F.Cl` [Ex. 23, (S)-(5-(4-chlorophenyl)-3-(2,6-difluoro-3-(propylsulfonamido)benzoyl)-1H-pyrrolo[2,3-b]pyridin-1-yl)methyl 2-amino-4-methylpentanoate hydrochloride], the intrinsic clearance (CLint scaled) at 1 μM is 429 mL/min/kg in series [1] and 15.4 mL/min/kg in series [2]. Moreover, the half-life at 1 μM was 5.8 min in series [1] and 113 min in series [2]. The results for the half-life at 2 μM (in the series “Stability in rat plasma”; in series [3]) were 3.42 min and 3.06 min, respectively.

As to `CCCS(=O)(=O)Nc1ccc(F)c(C(=O)c2cn(COC(=O)OCC)c3ncc(-c4ccc(Cl)cc4)cc23)c1F` [Ex. 26, (5-(4-chlorophenyl)-3-(2,6-difluoro-3-(propylsulfonamido)benzoyl)-1H-pyrrolo[2,3-b]pyridin-1-yl)methyl ethyl carbonate], in series [3], the half-life at 2 μM is 81.6 min.

For `CCCS(=O)(=O)Nc1ccc(F)c(C(=O)c2cn(COC(=O)OC(C)C)c3ncc(-c4ccc(Cl)cc4)cc23)c1F` [Ex. 27, (5-(4-chlorophenyl)-3-(2,6-difluoro-3-(propylsulfonamido)benzoyl)-1H-pyrrolo[2,3-b]pyridin-1-yl)methyl isopropyl carbonate], the half-life at 2 μM in the series “Stability in rat plasma” came to 55.9 min; in series [3], 79.6 min.

Turning to `CCCS(=O)(=O)Nc1ccc(F)c(C(=O)c2cn(C(C)OC(=O)OCC)c3ncc(-c4ccc(Cl)cc4)cc23)c1F` (stereo not drawn) [Ex. 28, 1-(5-(4-chlorophenyl)-3-(2,6-difluoro-3-(propylsulfonamido)benzoyl)-1H-pyrrolo[2,3-b]pyridin-1-yl)ethyl ethyl carbonate], the half-life at 2 μM in “Stability in rat plasma” amounted to 49.5 min; in series [3], 57.9 min.

In the case of `CCCS(=O)(=O)Nc1ccc(F)c(C(=O)c2cn(C(C)OC(=O)OC(C)C)c3ncc(-c4ccc(Cl)cc4)cc23)c1F` (stereo not drawn) [Ex. 30, 1-(5-(4-chlorophenyl)-3-(2,6-difluoro-3-(propylsulfonamido)benzoyl)-1H-pyrrolo[2,3-b]pyridin-1-yl)ethyl isopropyl carbonate], the half-life at 2 μM in the series “Stability in rat plasma” stood at 56.3 min. In series [3], the “Human T1/2” value was “∞”.
